Data set [1] concerns the target T1, rat lens aldose reductase (Rattus norvegicus, UniProt P07943).
T1 construct: rat lens aldose reductase; from tissue; host or cells: rat lens
Put plainly: inhibitory activity on rat lens aldose reductase (Experimental Example 1). To be noted: for IC50: pH 6.2, 10 mM DL-glyceraldehyde, 0.16 mM NADPH; for potency relative to reference compound A: ratio in words. Type of data set: biochemical. On the procedure:
The inhibitory activities of hydantoin derivatives on rat lens aldose reductase were measured according to the procedure of Inagaki et al. (K. Inagaki et al., Arch. Biochem. Biophys., 216, 337 (1982)) with slight modifications. Assays were performed in 0.1M phosphate buffer (pH 6.2) containing 0.4M ammonium sulfate, 10 mM DL-glyceraldehyde, 0.16 mM nicotinamide adenine dinucleotide phosphate, reduced form (NADPH) and aldose reductase (0.010-0.016 units) in a total volume of 1.0 ml. To this mixture was added 10 μl of the solution of each hydantoin derivative to be tested, and the decrease in absorbance at 340 nm was measured with a spectrophotometer.
The concentrations of typical hydantoin derivatives of the present invention required to produce 50% inhibition are shown in table 1.

For data set [2], the system named is Streptozotocin-Diabetic Rats. Description: Hypoglycemic Effects in Streptozotocin-Diabetic Rats (Experimental Example 4). To be noted: STZ-diabetic rats, 100 mg/kg oral; for inhibition in vivo at 100 mg/kg: Rattus norvegicus, 6 hrs after administration, read-out: Lowering rate of serum glucose (%). It is filed as in vivo, rat (male Wistar). On the procedure:
(§1) Diabetic rats were produced according to the method of Junod et al. (A. Junod et al., J. Clin. Invest., 48, 2129 (1969)). Briefly, male Wistar rats were given 26.5 mg/kg of streptozotocin (STZ) intravenously. Four days later, the rats with serum glucose levels of between 400 and 500 mg/dl were used. After being fasted for 4 hrs, groups of 5 diabetic rats were orally administered with the compounds of the present invention or gliclazide in a dose of 100 mg/kg. Blood sample were collected from the orbital vein before and 6 hrs after the administration. Serum glucose levels were determined by the enzymatic method with an autoanalyzer (Cobas Fara®, Roche).

The subject of data set [3] is ICR strain mice. Description: acute toxicity in mice (Experimental Example 3). It is filed as in vivo. To be noted: 1 g/kg, oral, groups of 5 ICR mice. The source says:
Hydantoin derivatives of the present invention were examined for acute toxicity.

Data set [4] concerns the target T2, bovine lens aldose reductase (Bos taurus, UniProt P16116).
T2 construct: bovine lens aldose reductase preparation was used; from tissue; host or cells: bovine lens
Put plainly: inhibitory activity on bovine lens aldose reductase (Experimental Example 2). It is filed as biochemical. To be noted: for IC50: pH 6.2, 10 mM DL-glyceraldehyde, 0.16 mM NADPH. On the procedure: Assays were performed in 0.1M phosphate buffer (pH 6.2) containing 0.4M ammonium sulfate, 10 mM DL-glyceraldehyde, 0.16 mM nicotinamide adenine dinucleotide phosphate, reduced form (NADPH) and aldose reductase (0.010-0.016 units) in a total volume of 1.0 ml. To this mixture was added 10 μl of the solution of each hydantoin derivative to be tested, and the decrease in absorbance at 340 nm was measured with a spectrophotometer.

For data set [5], the system named is Streptozotocin-Diabetic Rats. Description: Ketone Body Lowering Effects in Streptozotocin-Diabetic Rats (Experimental Example 5). It is filed as in vivo, rat (male Wistar). The conditions noted are these: STZ-diabetic rats, oral for 2 weeks. On the procedure:
as §1
(§2) Diabetic rats were produced according to the method described previously. Groups of 5 diabetic rats were orally administered with compound 38 or 47 of the present invention for 2 weeks. The rats were deprived of food 4 hrs before the last administration, and 6 hrs after the last administration, blood samples were collected from the orbital vein. Serum total ketone body (KB) levels were determined by the enzymatic method with an autoanalyzer (Cobas Fara®, Roche). In this experiment, serum total ketone body levels in streptozotocin-diabetic rats increased by 92 % of normal rats in the mean value.

Data set [6] deals with Normal Rats. Description: Hypoglycemic Effects in Normal Rats (Experimental Example 6). The conditions noted are these: normal animals. It is filed as in vivo, rat (male Wistar). On the procedure:
Groups of 5 male Wistar rats, after being fasted for 4 hrs, where orally administered with compound 38 or 47 of the present invention or gliclazide. Blood samples were collected from the orbital vein before, 1 hr and 6 hrs after the administration. Serum glucose levels were determined by the enzymatic method with an autoanalyzer (Cobas Fara®, Roche).

The subject of data set [7] is Streptozotocin-Diabetic Rats. Description: Hypolipidemic Effects in Streptozotocin-Diabetic Rats (Experimental Example 7). To be noted: STZ-diabetic rats, 100 mg/kg oral for 2 weeks. Type of data set: in vivo, rat (male Wistar). On the procedure: as §1
as §2, with “invention at a dose of 100 mg/kg” for “invention”, “triglyceride (TG), non-esterified fatty acid (NEFA) and cholesterol (CHOL)” for “total ketone body (KB)”, “experiment, each parameters of” for “experiment,”, “lipids” for “total ketone body levels”, “40” for “92”

The values that follow come from US5202339A, “Hydantoin derivatives” (Mochida Pharmaceutical Co., Ltd., priority 1987, dated 1993).

Entries after “also recorded” stand apart in the source; their conditions may differ.

Broadly, the IC50 is the concentration needed to halve the response being measured. Lower therefore signals greater potency in that assay. On to `O=C1CN(S(=O)(=O)c2ccc3ccccc3c2Cl)C(=O)N1` [Compound 1, 1-(1-chloronaphthalen-2-ylsulfonyl)hydantoin], for which the IC50 in data set [1] came to 290 nM. Also, the inhibition in vivo at 100 mg/kg in data set [2] came to 37.2%.
Molecule `O=C1CN(S(=O)(=O)c2cc3ccccc3cc2Cl)C(=O)N1` [Compound 2, 1-(3-chloronaphthalen-2-ylsulfonyl)hydantoin] gave a half-maximal inhibitory concentration (IC50) in data set [1] of 160 nM.
`O=C1CN(S(=O)(=O)c2ccc3c(Cl)cccc3c2)C(=O)N1` [Compound 3, 1-(5-chloronaphthalen-2-ylsulfonyl)hydantoin] came in with a half-inhibitory concentration (IC50) in data set [1] of 190 nM. In addition, the inhibition in vivo at 100 mg/kg in data set [2] turned out to be 19%.
Turning to `O=C1CN(S(=O)(=O)c2ccc3cc(Cl)ccc3c2)C(=O)N1` [Compound 4, 1-(6-chloronaphthalen-2-ylsulfonyl)hydantoin], the IC50 in data set [1] amounted to 140 nM. This counts as sub-micromolar.
The same measure, in the same setting: with `O=C1CN(S(=O)(=O)c2ccc3ccc(Cl)cc3c2)C(=O)N1` [Compound 5, 1-(7-chloronaphthalen-2-ylsulfonyl)hydantoin] the figure was 390 nM; with `O=C1CN(S(=O)(=O)c2ccc3cccc(Cl)c3c2)C(=O)N1` [Compound 6, 1-(8-chloronaphthalen-2-ylsulfonyl)hydantoin], 460 nM.
The molecule `O=C1CN(S(=O)(=O)c2cc3ccc(Cl)cc3cc2Cl)C(=O)N1` [Compound 7, 1-(3,6-dichloronaphthalen-2-ylsulfonyl)hydantoin] displayed a 50% inhibitory concentration (IC50) in data set [1] of 240 nM. In addition, the “acute toxicity: change observed over the one-week period after administration” value (“acute toxicity: change observed” for short) in data set [3] is listed as “no change was observed”. Besides, the inhibition in vivo at 100 mg/kg in data set [2] was determined as 23.2%.
`O=C1CN(S(=O)(=O)c2ccc3ccccc3c2Br)C(=O)N1` [Compound 8, 1-(1-bromonaphthalen-2-ylsulfonyl)hydantoin] registered an IC50 in data set [1] of 94 nM.
As for `O=C1CN(S(=O)(=O)c2cc3ccccc3cc2Br)C(=O)N1` [Compound 9, 1-(3-bromonaphthalen-2-ylsulfonyl)hydantoin], the IC50 in data set [1] was 350 nM. Further, the inhibition in vivo at 100 mg/kg in data set [2] is 17.4%.
With `O=C1CN(S(=O)(=O)c2ccc3cc(Br)ccc3c2)C(=O)N1` [Compound 10, 1-(6-bromonaphthalen-2-ylsulfonyl)hydantoin], in data set [1], the half-inhibitory concentration (IC50) was 170 nM.
The same measure, in the same setting: with `O=C1CN(S(=O)(=O)c2ccc3c([N+](=O)[O-])cccc3c2)C(=O)N1` [Compound 11, 1-(5-nitronaphthalen-2-ylsulfonyl)hydantoin] the figure was 100 nM.
On the same count and under the same terms, for `Cc1cc2ccccc2cc1S(=O)(=O)N1CC(=O)NC1=O` [Compound 12, 1-(3-methylnaphthalen-2-ylsulfonyl)hydantoin] the value was 140 nM.
Consider `Cc1ccc2cc(S(=O)(=O)N3CC(=O)NC3=O)ccc2c1[N+](=O)[O-]` [Compound 13, 1-(6-methyl-5-nitronaphthalen-2-yl-sulfonyl)hydantoin], for which, in data set [1], the midpoint of inhibition, the IC50, lay at 27 nM and the “potency relative to reference compound A” value is “ten times or more potent”. The “inhibitory activity against aldose reductase compared with reference compound B” value in data set [4] (in words) is given as “stronger inhibitory activities against aldose reductase”. Further, in data set [4], half-maximal inhibition (IC50) was put at 100 nM.
`Cc1ccc2ccc(S(=O)(=O)N3CC(=O)NC3=O)cc2c1` [Compound 14, 1-(7-methylnaphthalen-2-ylsulfonyl)hydantoin] registered an IC50 in data set [1] of 350 nM.
Regarding `COc1ccc2cc(S(=O)(=O)N3CC(=O)NC3=O)ccc2c1[N+](=O)[O-]` [Compound 15, 1-(6-methoxy-5-nitronaphthalen-2-yl-sulfonyl)hydantoin], in data set [1], half-maximal inhibition (IC50) was put at 38 nM and the “potency relative to reference compound A” value is “ten times or more potent”. In data set [4] (in words), the “inhibitory activity against aldose reductase compared with reference compound B” value is on record as “stronger inhibitory activities against aldose reductase”. This molecule returned a concentration for half-maximal inhibition (IC50) in data set [4] of 230 nM.
On to `O=C1CN(S(=O)(=O)c2cc3ccccc3o2)C(=O)N1` [Compound 19, 1-(benzo[b]furan-2-ylsulfonyl)hydantoin], for which, in data set [3], the “acute toxicity: change observed” value is on record as “no change was observed”. For the same molecule, the inhibition in vivo at 100 mg/kg in data set [2] was 52.1%.
`O=C1CN(S(=O)(=O)c2cc3cc(Cl)ccc3o2)C(=O)N1` [Compound 20, 1-(5-chlorobenzo[b]furan-2-ylsulfonyl)hydantoin] returned a half-inhibitory concentration (IC50) in data set [4] of 360 nM. Moreover, the “acute toxicity: change observed” value in data set [3] is “no change was observed”. Besides, in data set [2], the inhibition in vivo at 100 mg/kg stood at 12.8%.
In the same order, the values of `O=C1CN(S(=O)(=O)c2cc3cc(Br)ccc3o2)C(=O)N1` [Compound 21, 1-(5-bromobenzo[b]furan-2-ylsulfonyl)hydantoin] are 300 nM, “no change was observed” and 22.3%.
With `O=C1CN(S(=O)(=O)c2cc(Cl)sc2Cl)C(=O)N1` [Compound 24, 1-(2,5-dichlorothiophen-3-ylsulfonyl)hydantoin], the “potency compared with compound 13 and 15” value in data set [4] (in words) is “as potent as compound 13 and 15”. This molecule also gave a half-maximal inhibitory concentration (IC50) in data set [4] of 290 nM. In addition, the “acute toxicity: change observed” value in data set [3] is on record as “no change was observed”.
In data set [4], `O=C1CN(S(=O)(=O)c2cc3c(Cl)cccc3s2)C(=O)N1` [Compound 40, 1-(4-chlorobenzo[b]thiophen-2-yl-sulfonyl)hydantoin] returned an IC50 of 170 nM. Besides, the “acute toxicity: change observed” value in data set [3] is given as “no change was observed”. Also, the inhibition in vivo at 100 mg/kg in data set [2] stood at 11%.
Take `O=C1CN(S(=O)(=O)c2cc3c(Cl)c(Cl)ccc3o2)C(=O)N1` [Compound 44, 1-(4,5-dichlorobenzo[b]furan-2-yl-sulfonyl)hydantoin]: the IC50 in data set [4] stood at 61 nM. In addition, the “acute toxicity: change observed” value in data set [3] was “no change was observed”. Moreover, the inhibition in vivo at 100 mg/kg in data set [2] was determined as 21.1%.
On the same counts, the results for `O=C1CN(S(=O)(=O)c2cc3cc(Cl)c(Cl)cc3o2)C(=O)N1` [Compound 45, 1-(5,6-dichlorobenzo[b]furan-2-yl-sulfonyl)hydantoin] are 83 nM, “no change was observed” and 28.5%.
For the molecule `O=C1CN(S(=O)(=O)c2oc3ccccc3c2Cl)C(=O)N1` [Compound 47, 1-(3-chlorobenzo[b]furan-2-ylsulfonyl)hydantoin], the inhibition in vivo at 100 mg/kg in data set [2] was 44.7%. The “lowering of serum total ketone body levels (in words)” value in data set [5] is listed as “lowering activity of serum total ketone body levels”. Besides, the “influence on serum glucose level of normal rats (in words)” value in data set [6] is reported as “lesser influences on serum glucose level of normal rats”. Moreover, in data set [7], the “lowering of serum lipid levels (in words)” value was “lowering activities of serum triglyceride, non esterified fatty acid and cholesterol levels”.
`O=C1CN(S(=O)(=O)c2ccc3ccccc3c2)C(=O)N1` [Compound A, 1-(naphthalene-2-ylsulfonyl)hydantoin, reference compound]: 660 nM corresponded to half-maximal inhibition in data set [1] (IC50). This lies in the sub-micromolar range.
As to `Cc1ccc(S(=O)(=O)NC(=O)NN2CC3CCCC3C2)cc1` (stereo not drawn) [Compound C, gliclazide, reference compound], in data set [2], the inhibition in vivo at 100 mg/kg stood at 11% and the “hypoglycemic activity in diabetic animals (in words)” value is listed as “less potent hypoglycemic activity than all compounds of the present invention”. Moreover, the “influence on serum glucose level of normal rats (in words)” value in data set [6] is listed as “significantly lowered serum glucose level of normal rats; also recorded: remarkable hypoglycemic activity in normal animals”.
